How the values were obtained:
[1] = biological target: T1, cytosolic phospholipase A2 (Homo sapiens, UniProt P47712); assay: Inhibition of cytosolic phospholipase A2 isolated from human thrombocytes (arachidonic acid release from SAPC, HPLC-UV); assay type: biochemical; details: for inhibition at 0.1 µM: read-out: inhibition of the activity of cytosolic phospholipase A2 compared to the control value
T1 construct: cytosolic phospholipase A2 obtained from human thrombocytes; from tissue; host or cells: human thrombocytes (platelets)
T1 sequence (P47712 1-749): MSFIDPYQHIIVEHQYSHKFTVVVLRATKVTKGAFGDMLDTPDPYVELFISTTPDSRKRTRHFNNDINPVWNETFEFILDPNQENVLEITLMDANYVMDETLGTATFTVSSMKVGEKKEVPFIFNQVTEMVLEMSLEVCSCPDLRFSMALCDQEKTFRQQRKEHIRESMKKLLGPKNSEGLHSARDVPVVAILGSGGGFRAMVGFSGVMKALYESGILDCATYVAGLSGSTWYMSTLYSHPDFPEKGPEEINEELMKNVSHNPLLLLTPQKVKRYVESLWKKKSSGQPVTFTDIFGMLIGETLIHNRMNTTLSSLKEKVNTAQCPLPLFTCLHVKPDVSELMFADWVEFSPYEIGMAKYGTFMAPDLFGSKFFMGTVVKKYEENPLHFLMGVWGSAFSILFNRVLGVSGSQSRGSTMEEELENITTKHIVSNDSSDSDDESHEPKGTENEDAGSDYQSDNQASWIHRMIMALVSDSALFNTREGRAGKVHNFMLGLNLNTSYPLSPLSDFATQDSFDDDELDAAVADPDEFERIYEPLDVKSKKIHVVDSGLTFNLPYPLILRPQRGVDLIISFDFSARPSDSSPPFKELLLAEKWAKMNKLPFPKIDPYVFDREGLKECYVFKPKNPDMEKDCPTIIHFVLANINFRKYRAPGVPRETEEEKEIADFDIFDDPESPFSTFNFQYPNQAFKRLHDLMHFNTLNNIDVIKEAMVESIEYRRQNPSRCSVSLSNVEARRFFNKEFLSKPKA
Description: The effectiveness of the inventive compounds is determinable by referring to the inhibition of the cytosolic phospholipase A2. For this purpose, cytosolic phospholipase A2 that had been isolated from human thrombocytes was used.
The IC50 value of the compounds for the inhibition of cytosolic phospholipase A2 corresponds to the concentration of the compounds that is necessary to reduce the activity of the enzyme by 50%.
The IC50 values were calculated from the values of cytosolic phospholipase A2 inhibition obtained from different concentrations with the help of the Probit model (see Hartke, Mutschler, DAB 9 Kommentar Band 1 S. 733-734, Wissenschaftliche Verlagsgesellschaft Stuttgart 1978).
The effectiveness of the inventive compounds was determined based on the inhibition of cytosolic phospholipase A2. The determination was accomplished, if not described otherwise hereinafter, as was described in Schmitt, M.; Lehr, M., “HPLC assay with UV spectrometric detection for the evaluation of inhibitors of cytosolic phospholipase A2” J. Pharm. Biomed. Anal. 2004, 35, 135-142.
Cytosolic phospholipase A2 that had been isolated from human thrombocytes was used as the enzyme source.
To produce a solution of covesicles from the substrate 1-stearoyl-2-arachidonoyl-sn-glycero-3-phosphocholine (SAPC) (Sigma) and 1,2-dioleoyl-sn-glycerol (DOG) (Sigma), corresponding amounts of the chloroform solution from SAPC (10 mg/ml) and DOG (5 mg/ml) were mixed and then the chloroform was steamed away in a stream of nitrogen. The residue was mixed with enough Tris buffer ([…], 1 mM dithiothreitol, 150 mM NaCl, 1 mM CaCl2, ph 8 at 20° C.) that a concentration for SAPC of 0.26 mM and a concentration for DOG of 0.13 mM were present. The mixture was homogenized for 10 minutes in an ultrasonic bath at 35° C. for the purpose of forming covesicles.
2 μl of the solution of the respective compound in DMSO (made from a 5 mM stock solution in DMSO) or, in the case of the control value, 2 μl of DMSO, were each mixed with 78 μl of the substrate mixture in Eppendorf tubes.
After 10 minutes of preincubation in a water bath at 37° C., 20 μl of the solution of cytosolic phospholipase A2 obtained from human thrombocytes were added to each of the […] and this mixture was incubated for another 60 minutes at 37° C. The incubation preparations contained 0.20 mM SAPC and 0.10 mM DOG per 100 μl. After that, the enzyme reaction was stopped by adding 400 μl of a solution of acetronitrile/methanol/0.1 M aqueous EDTA-solution in ratios 16:15:1 (v/v/v), whereby this solution contained 3 μg/ml nordihydroguaiaretic acid (NDGA) (Sigma) as antioxidant and 1.55 μg/ml 4-undecyloxybenzoic acid as internal standard. Subsequently, the samples were placed in ice for 10 to 15 minutes and then stored at −20° C. until solid phase extraction.
The octadecyl solid phase extraction columns with a bed volume of 200 mg and a capacity of 3 ml (Baker) were initially washed with 6 ml methanol and then with 6 ml water. The samples were diluted with 2 ml 0.005 M aqueous NaOH and then introduced to the solid phase columns. […] The eluate was mixed with 600 μl water. 100 μl of this solution was injected into the HPLC apparatus (Waters, Waters 717plus Autosampler, Waters 515 pump, and Waters 2487 UV detector). Data analysis was accomplished using the software program Millennium. For the column, a Nucleosil 100-3 C18 column (125×3 mm) with a Nucleosil 100-3 C18 pre-column (20×3 mm) (CS-Chromatographie-Service, Langerwehe) was used. The flow rate was 0.4 ml/min; the detection wavelength was 200 nm. A mixture of acetonitrile/water/phosphoric acid (85%) in ratios 770:230:1 (v/v/v) was used for the flow medium. The chromatogram run time was 30 minutes. Before the next injection, the column was always equilibrated for 15 minutes.

[2] = Determining water solubility in phosphate buffered saline (pH 7.4), HPLC; assay type: physicochemical; details: phosphate buffered saline (PBS buffer), aqueous buffer, thermodynamic from solid; PBS buffer pH 7.4; range or bound stated jointly for the listed compounds
Description: The water solubility of the compounds was determined by administering aqueous phosphate buffer (pH 7.4) to each respective compound, and the dissolved amount was determined after shaking and centrifugation, as is described in example 12.
The determination of the water solubility of the compound was accomplished, if not hereinafter stated otherwise, with reference to the method published by Kim et al., J. Med. Chem. 2005, 48, 3621-3629.
The mixture was placed in an ultrasonic bath (Sonorex TK52, Bandelin) for 10 minutes and then shaken lightly in a shaking water bath (GFL 1083). Subsequently, the mixture was centrifuged for 10 minutes at 4000×g and room temperature. About 1 ml clear solution was taken from the supernatant. 200 μl of the clear solution were mixed with 250 μl acetonitrile (VWR) and 50 μl 0.1 M phosphoric acid. From this solution, a volume of between 5 μl and 100 μl was injected into an HPLC system (Waters, Waters 717plus Autos ampler, Waters 515 pump, and Waters 2487 UV detector)
For reference solution 1, 2 μl of a 5 mM solution of the respective compound in dimethyl sulfoxide (DMSO) were mixed with 198 μl PBS buffer, 250 μl acetonitrile, and 50 μl 0.1 M phosphoric acid. For reference solution 2, 2 μl of a 5 mM solution of the respective compound in DMSO were mixed with 398 μl PBS buffer, 500 μl acetonitrile, and 100 μl 0.1 M phosphoric acid.
C18 Aqua®-columns from the company Phenomenex (Aqua®, RP18, 75×4.6 mm, 3 μm) were used as the stationary phase.
were determined under corresponding conditions.

[3] = tested on: contact dermatitis induced by benzalkonium chloride; assay: Anti-inflammatory properties in vivo, contact dermatitis induced by benzalkonium chloride (ear swelling); details: topical, 10 μl of a 1% solution in acetone (0.1 mg/ear), BALB/c mice, measured 1 to 72 hours
Description: The determination of the anti-inflammatory properties in vivo in the model of contact dermatitis induced by benzalkonium chloride was accomplished, if not stated otherwise hereinafter, according to the method published by E. Hyun et al., British Journal of Pharmacology, 2004, 143, S. 618-625.
BALB/c mice (Harlan Winkelmann GmbH, Borchen) were used as laboratory animals. A contact dermatitis was induced by introducing 10 μl per ear of a 5% benzalkonium chloride solution (Sigma) in olive oil/acetone (1:5) to the dorsal side of both ears for each of 8 lab animals per experimental group. This led to a swelling of the ears.
After 1 hour, 3 hours, 5 hours, 7 hours, 24 hours, 48 hours, and 72 hours, the ear thicknesses were measured using a digital caliper (Roth, Karlsruhe).

| Structure (SMILES) | inhibition at 0.1 µM [1] [%] | solubility [2] [µg/mL] | increase in ear thickness compared to the negative control [3] | IC50 [1] [nM] |
| --- | --- | --- | --- | --- |
| CCCCCCCCc1ccc(OCC(=O)Cn2cc(C(=O)CCCC(=O)O)c3cc(C(=O)O)ccc32)cc1 [formula (2), 3-(4-carboxybutanoyl)-1-[3-(4-octylphenoxy)-2-oxopropyl]indole-5-carboxylic acid] | 30 to 97 |  |  |  |
| CCCCCCCCc1ccc(OCC(=O)Cn2cc(C(=O)OC)c3cc(C(=O)O)ccc32)cc1 [formula (11), reference compound] |  | < 1 |  |  |
| CCCCCCCCc1ccc(OCC(=O)Cn2cc(C(=O)C(F)(F)F)c3cc(C(=O)O)ccc32)cc1 [formula (6), 1-[3-(4-octylphenoxy)-2-oxopropyl]-3-(2,2,2-trifluoracetyl)indole-5-carboxylic acid] | 30 to 97 |  |  |  |
| CCCCCCCCc1ccc(OCC(=O)Cn2cc(C(C)=O)c3cc(C(=O)O)ccc32)cc1 [formula (10), reference compound] |  | < 1 |  |  |
| CCCCCCCCc1ccc(OCC(=O)Cn2cc(C(=O)CCCCC(=O)O)c3cc(C(=O)O)ccc32)cc1 [formula (3), 3-(5-carboxypentanoyl)-1-[3-(4-octylphenoxy)-2-oxopropyl]indole-5-carboxylic acid] |  |  | significantly decreased increase in ear thickness |  |
| O=C(O)CCC(=O)c1cn(CC(=O)COc2ccc(Oc3ccc(C(F)(F)F)cc3)cc2)c2ccc(C(=O)O)cc12 [formula (4), 3-(3-carboxypropanoyl)-1-{2-oxo-3-[4-(4-trifluormethylphenoxy)phenoxy]propyl}indole-5-carboxylic acid] | 30 to 97 | 190 to 410 |  | 190 |
| COC(=O)CCC(=O)c1cn(CC(=O)COc2ccc(Oc3ccc(C(F)(F)F)cc3)cc2)c2ccc(C(=O)O)cc12 [formula (5), 3-(3-methoxycarbonylpropanoyl)-1-{2-oxo-3-[4-(4-trifluormethylphenoxy)phenoxy]propyl}indole-5-carboxylic acid] | 30 to 97 | 15 to 35 |  | 22 |

— patent US20100240718A1, “NOVEL HETEROARYL-SUBSTITUTED ACETONE DERIVATIVE, SUITABLE FOR INHIBITING PHOSPHOLIPASE A2” (WESTFALISCHE WILHELMS UNIVERSITÄT MÜNSTER, priority 2007, published 2010)
